Laboratory results from ChEMBL document CHEMBL1136532, “Novel water soluble 2,6-dimethoxyphenyl ester derivatives with intravenous anaesthetic activity” (Bioorg Med Chem Lett, 2003).
pIC50: −log10 of the molar value.

How the values were obtained:
Mus musculus [1] = assay: Anesthetic activity determined as hypnotic dose by intravenous administration in male MF-1 mice; type: functional
Mus musculus [2] = assay: Anesthetic activity as hypnotic dose by intravenous administration in male MF-1 mice; type: functional
Mus musculus [3] = assay: Anesthetic activity as hypnotic dose by intravenous administration in male MF-1 mice; Convulsant; type: functional, organism-based
[4] = biological target: GABA-A receptor; anion channel; assay: Inhibition of [35S]TBPS binding to GABA-A receptor rat whole brain membranes; type: cell membranes
Rattus norvegicus [5] = assay: Dose for 60% Mean burst suppression ratio (BSR) after the start of a 10 s iv bolus injection of compound; type: functional
Rattus norvegicus [6] = species on record: Rattus norvegicus; assay: Parameter value extracted from closed loop infusions to maintain 60% Mean burst suppression ratio (BSR) for 1 hr periods; type: functional
Rattus norvegicus [7] = assay: Time for Mean burst suppression ratio (BSR) after the start of a 10 s iv bolus injection of compound; type: functional
Rattus norvegicus [8] = assay: Time to 1st 0.25 s BS epoch (s) of Mean burst suppression ratio (BSR) after the start of a 10 s iv bolus injection of compound; type: functional
Rattus norvegicus [9] = assay: Time to 30% Mean burst suppression ratio (BSR) after the start of a 10 s iv bolus injection of compound; type: functional
Rattus norvegicus [10] = species on record: Rattus norvegicus; assay: (§1) Parameter value extracted from closed loop infusions to maintain 60% Mean burst suppression ratio (BSR) for 1 h periods; type: functional
Rattus norvegicus [11] = assay: Time to righting for Mean burst suppression ratio (BSR) after the start of a 10 s iv bolus injection of compound; type: functional
Rattus norvegicus [12] = species on record: Rattus norvegicus; assay: as §1; type: functional, organism-based

**Q.** How did the HD50 (Mus musculus [1]) turn out when `CCOCCC(C(=O)Oc1c(OC)cccc1OC)N(CCOCC)CCOCC` (configuration not stated) was run?
**A.** 47 µM/kg

**Q.** Which HD50 (Mus musculus [1]) does the source give for `COCCCN(CCCOC)C(COC)C(=O)Oc1c(OC)cccc1OC` (configuration not stated) here?
**A.** 46 µM/kg

**Q.** Which HD50 (Mus musculus [1]) does the source give for `CCOCCN(CCOCC)C(COC)C(=O)Oc1c(OC)cccc1OC` (configuration not stated) here?
**A.** 25 µM/kg

**Q.** With `COc1cccc(OC)c1OC(=O)C(CN1CCCOCC1)N1CCCOCC1` (configuration not stated) as the compound, how does the HD50 (Mus musculus [2]) read?
**A.** <25 µM/kg

**Q.** Which HD50 (Mus musculus [1]) does the source give for `CCOCCC(C(=O)Oc1c(OC)cccc1OC)N1CCCCCC1` (configuration not stated) here?
**A.** 25 µM/kg

**Q.** For `C=CCN1CCN(Cc2ccccc2)C(C(=O)Oc2c(OC)cccc2OC)C1` (configuration not stated), which HD50 (Mus musculus [2]) is on record?
**A.** 31 µM/kg

**Q.** Which HD50 (Mus musculus [2]) does the source give for `CCC(=O)N1CCN(Cc2ccccc2)C(C(=O)Oc2c(OC)cccc2OC)C1` (configuration not stated) here?
**A.** 34 µM/kg

**Q.** `COc1cccc(OC)c1OC(=O)C(CN1CCCCC1)N1CCOCC1` (configuration not stated) was tested. Which HD50 (Mus musculus [2]) did it give?
**A.** 15 µM/kg

**Q.** With `COCC(C(=O)Oc1c(OC)cccc1OC)N1CCOCC1` (configuration not stated) as the compound, how does the HD50 (Mus musculus [1]) read?
**A.** 54 µM/kg

**Q.** Which HD50 (Mus musculus [1]) does the source give for `COCC(C(=O)Oc1c(OC)cccc1OC)N1CCCCC1` (configuration not stated) here?
**A.** 146 µM/kg

**Q.** Which HD50 (Mus musculus [2]) does the source give for `COc1cccc(OC)c1OC(=O)C(CN1CCOCC1)N1CCc2ccccc2C1` (configuration not stated) here?
**A.** 21 µM/kg

**Q.** How did the HD50 (Mus musculus [2]) turn out when `COc1cccc(OC)c1OC(=O)C(CN1CCOCC1)N1CCOCC1` (configuration not stated) was run?
**A.** 38 µM/kg

**Q.** How did the HD50 (Mus musculus [1]) turn out when `COCCC(C(=O)Oc1c(OC)cccc1OC)N1CCCCCC1` (configuration not stated) was run?
**A.** 17 µM/kg

**Q.** `CCOCCC(C(=O)Oc1c(OC)cccc1OC)N(CCOC)CCOC` (configuration not stated) was tested. Which HD50 (Mus musculus [1]) did it give?
**A.** 27 µM/kg

**Q.** With `COc1cccc(OC)c1OC(=O)C(CN1CCSCC1)N1CCOCC1` (configuration not stated) as the compound, how does the HD50 (Mus musculus [2]) read?
**A.** 17 µM/kg

**Q.** How did the HD50 (Mus musculus [1]) turn out when `COCC(C(=O)Oc1c(OC)cccc1OC)N1CCSCC1` (configuration not stated) was run?
**A.** 21 µM/kg

**Q.** `COc1cccc(OC)c1OC(=O)C1CN(C)CCN1Cc1ccccc1` (configuration not stated) was tested. Which HD50 (Mus musculus [2]) did it give?
**A.** 122 µM/kg

**Q.** `CCN1CCN(Cc2ccccc2)C(C(=O)Oc2c(OC)cccc2OC)C1` (configuration not stated) was tested. Which HD50 (Mus musculus [2]) did it give?
**A.** 24 µM/kg

**Q.** How did the HD50 (Mus musculus [1]) turn out when `COCCC(C(=O)Oc1c(OC)cccc1OC)N1CCOCC1` (configuration not stated) was run?
**A.** 38 µM/kg

**Q.** With `CCOCCN(CCOCC)C(CCOC)C(=O)Oc1c(OC)cccc1OC` (configuration not stated) as the compound, how does the HD50 (Mus musculus [1]) read?
**A.** 28 µM/kg

**Q.** Which HD50 (Mus musculus [1]) does the source give for `COCCC(C(=O)Oc1c(OC)cccc1OC)N1C=CCCC1` (configuration not stated) here?
**A.** 22 µM/kg

**Q.** With `COCCC(C(=O)Oc1c(OC)cccc1OC)N1CCC(OC)CC1` (configuration not stated) as the compound, how does the HD50 (Mus musculus [1]) read?
**A.** 21 µM/kg

**Q.** `COCCC(C(=O)Oc1c(OC)cccc1OC)N(CCOC)CCOC` (configuration not stated) was tested. Which HD50 (Mus musculus [1]) did it give?
**A.** 27 µM/kg

**Q.** `CCOCC(C(=O)Oc1c(OC)cccc1OC)N1CCCOCC1` (configuration not stated) was tested. Which HD50 (Mus musculus [1]) did it give?
**A.** 20 µM/kg

**Q.** How did the HD50 (Mus musculus [1]) turn out when `CCOCCC(C(=O)Oc1c(OC)cccc1OC)N1CCOCC1` (configuration not stated) was run?
**A.** 36 µM/kg

**Q.** For `COc1cccc(OC)c1OC(=O)C(CN1CCSCC1)N1CCSCC1` (configuration not stated), which HD50 (Mus musculus [2]) is on record?
**A.** 15 µM/kg

**Q.** Which HD50 (Mus musculus [2]) does the source give for `COCCN(CCOC)C(CN1CCOCC1)C(=O)Oc1c(OC)cccc1OC` (configuration not stated) here?
**A.** 75 µM/kg

**Q.** For `COc1cccc(OC)c1OC(=O)C(CN1CCOCC1)N1CCSCC1` (configuration not stated), which HD50 (Mus musculus [2]) is on record?
**A.** 19 µM/kg

**Q.** For `COCCC(C(=O)Oc1c(OC)cccc1OC)N1CCCCC1` (configuration not stated), which HD50 (Mus musculus [1]) is on record?
**A.** 22 µM/kg

**Q.** `CCOCCN(CCOCC)CC(C(=O)Oc1c(OC)cccc1OC)N(CCOCC)CCOCC` (configuration not stated) was tested. Which HD50 (Mus musculus [3]) did it give?
**A.** Convulsant

**Q.** For `CCOCCN(CCOCC)CC(C(=O)Oc1c(OC)cccc1OC)N1CCOCC1` (configuration not stated), which HD50 (Mus musculus [3]) is on record?
**A.** Convulsant

**Q.** For `COCCN(CCOC)CC(C(=O)Oc1c(OC)cccc1OC)N(CCOC)CCOC` (configuration not stated), which HD50 (Mus musculus [3]) is on record?
**A.** Convulsant

**Q.** How did the HD50 (Mus musculus [3]) turn out when `COc1cccc(OC)c1OC(=O)C1CNCCN1Cc1ccccc1` (configuration not stated) was run?
**A.** Convulsant

**Q.** How did the pIC50 [4] turn out when `CCOCCC(C(=O)Oc1c(OC)cccc1OC)N1CCCOCC1` (racemic) was run?
**A.** 4.46

**Q.** What does the source list for `COCCC(C(=O)Oc1c(OC)cccc1OC)N1CCCOCC1` (racemic)?
**A.** pIC50 [4]: 4.16; HD50 (Mus musculus [1]): 20 µM/kg

**Q.** `CCOCCC(C(=O)Oc1c(OC)cccc1OC)N1CCCOCC1` (single isomer, unassigned) was tested. Which pIC50 [4] did it give?
**A.** < 4.00

**Q.** What about the HD50 (Mus musculus [1]) of the same compound?
**A.** 48 µM/kg

**Q.** `COCC(C(=O)Oc1c(OC)cccc1OC)N1CCCOCC1` (single isomer, unassigned; form 1) [listing 1 of 2 here] was tested. Which pIC50 [4] did it give?
**A.** 4.45

**Q.** And the HD50 (Mus musculus [1])?
**A.** 16 µM/kg

**Q.** What about the Dose (Rattus norvegicus [5]) of the same compound?
**A.** 11.4 µM/kg

**Q.** And the Infusion rate (Rattus norvegicus [6])?
**A.** 5 µM/min/kg

**Q.** And the “Time to 30% BSR” value (Rattus norvegicus [6])?
**A.** 2.4 min

**Q.** What about the Time (Rattus norvegicus [7]) of the same compound?
**A.** 32 s

**Q.** And the Time (Rattus norvegicus [8])?
**A.** 12.9 s

**Q.** What about the Time (Rattus norvegicus [9]) of the same compound?
**A.** 1.3 min

**Q.** And the Time to righting (Rattus norvegicus [10])?
**A.** 6.8 min

**Q.** And the Time (Rattus norvegicus [11])?
**A.** 3.3 min

**Q.** What does the source list for `COCCC(C(=O)Oc1c(OC)cccc1OC)N1CCCOCC1` (single isomer, unassigned; form 1)?
**A.** pIC50 [4]: < 4.00; HD50 (Mus musculus [1]): 30 µM/kg

**Q.** For `COCC(C(=O)Oc1c(OC)cccc1OC)N1CCCOCC1` (single isomer, unassigned; form 1) [listing 2 of 2 here], which Stability of BSR (Rattus norvegicus [12]) is on record?
**A.** 2.5%

**Q.** With `COCC(C(=O)Oc1c(OC)cccc1OC)N1CCCOCC1` (single isomer, unassigned; form 2) as the compound, how does the pIC50 [4] read?
**A.** 4.01

**Q.** What about the HD50 (Mus musculus [1]) of the same compound?
**A.** 40 µM/kg

**Q.** How did the pIC50 [4] turn out when `COCCC(C(=O)Oc1c(OC)cccc1OC)N1CCCOCC1` (single isomer, unassigned; form 2) was run?
**A.** 4.49

**Q.** `CCOCCC(C(=O)Oc1c(OC)cccc1OC)N1CCCOCC1` (stereo in doubt) was tested. Which HD50 (Mus musculus [1]) did it give?
**A.** 15 µM/kg

**Q.** With `COCC(C(=O)Oc1c(OC)cccc1OC)N1CCCOCC1` (stereo in doubt; 26) as the compound, how does the pIC50 [4] read?
**A.** 4.46

**Q.** And the HD50 (Mus musculus [1])?
**A.** 30 µM/kg

**Q.** How did the HD50 (Mus musculus [1]) turn out when `COCCC(C(=O)Oc1c(OC)cccc1OC)N1CCCOCC1` (stereo in doubt; 31) was run?
**A.** 15 µM/kg

**Q.** For `CCOCCC(C(=O)Oc1c(OC)cccc1OC)N1CCCOCC1` (stereo in doubt; 39), which HD50 (Mus musculus [1]) is on record?
**A.** 23 µM/kg

**Q.** How did the pIC50 [4] turn out when `CC[C@H](C(=O)Oc1c(OC)cc(C)cc1OC)N(CCOC)CCOC` [ORG-24447] was run?
**A.** 4.53

**Q.** What about the HD50 (Mus musculus [2]) of the same compound?
**A.** 22 µM/kg

**Q.** What does the source list for `CC(C)c1cccc(C(C)C)c1O` [PROPOFOL]?
**A.** HD50 (Mus musculus [2]): 68 µM/kg; Dose (Rattus norvegicus [5]): 41 µM/kg; Time (Rattus norvegicus [7]): 30 s; Time (Rattus norvegicus [8]): 13.1 s; Time (Rattus norvegicus [9]): 1.5 min; Time (Rattus norvegicus [11]): 5.5 min
